Experimental data from US4322308A, “Detergent product containing deodorant compositions” (priority 1977, dated 1982).

Legend:
[1] = tested on: body malodour (axillae of human subjects); assay: Odour Reduction Value Test (soap bars applied to the axillae of a human panel); assay type: in vivo; details: for Odour Reduction Value: 0 to 5 scale, 5 hours after washing
Description: As has been stated, the ability of toilet soap containing both a deodorant perfume and a deodorant other than a deodorant perfume to reduce body malodour was assessed by an odour reduction value test, somewhat similar to that described by Whitehouse and Carter in Proc. Scientific Section of the Toilet Goods Association, 48, 31 (1967) for the measurement of body odour inhibition by germicides in toilet soap.
The test described in that publication was modified in three ways: firstly a 0 to 5 instead of a 0 to 10 grading scale was employed, secondly grading of odour intensity was performed 5 hours after treatment instead of 24 hours, and thirdly, the concentration of deodorant perfume incorporated in the test detergent product was 1.5% by weight of the product.
In this test, the odour reduction value of a standard soap bar containing a deodorant perfume at a standard concentration is measured by assessing its effectiveness in reducing body malodour when the standard soap bar is used to wash the axillae (armpits) of a panel of human subjects.
Standard soap bars are prepared as follows, all amounts given being by weight.
A soap base there is used a neutral wet sodium soap containing 63% of total fatty matter of which 82% is tallow fatty acid and 18% is coconut oil fatty acid. To a homogeneous mixture of 9000 parts of this soap base and 340 parts of free coconut oil fatty acid at 80° C. are added with mixing, 9.4 parts of a 20% aqueous solution of tetrasodium ethylenediamine tetraacetate, 2.2 parts of a 60% aqueous solution of 1-hydroxyethane-1,1-diphosphonic acid and 7.2 parts of butylated hydroxy toluene (BHT) antioxidant dissolved in a little methylated spirits and the temperature of the mass is raised to 140° C. under superatmospheric pressure. The mass is then sprayed at about 30 mm of mercury, to produce a dried soap composition which is collected and extruded at 30° C. as noodles of about 12% moisture content.
9,770 parts of the soap noodles thus obtained are mixed at ambient temperature with 150 parts of the deodorant perfume to be tested, together with 30 parts of a titanium dioxide opacifier and 50 parts of a colourant suspension. The resulting mixture is milled and stamped into tablets. The deodorant perfume to be tested is therefore present at the standard level of 1.5%.
In other respects, the control bar should only contain those additives conventionally present in personal washing products and for the purpose in the amount conventionally used in the art.
A team of 2 to 4 Caucasian female assessors of age within the range of from 20 to 40 years is selected for olfactory evaluation on the basis that each is able to rank correctly the odour levels of the series of aqueous isovaleric acid solutions listed in Table 2 below, and each is able to detect the reduction in body odour following application to the axillae of human subjects of soap containing 2% germicides, according to the procedure described by Whitehouse and Carter.
A panel of 30 to 50 human subjects for use in the test is assembled from Caucasian male subjects of age within the range of from 20 to 55 years.
For two weeks before the start of a test, the panel subjects are assigned a non-deodorant soap bar for exclusive use of bathing and are denied the use of any type of deodorant or antiperspirant. At the end of this period, the subjects are randomly divided into two groups. The control soap bars are then applied to the left axillae of the first group and the right axillae of the second, and the test soap bars are applied to the right axillae of the first group and the left axillae of the second.
The soap bars are applied by a technician using a standard technique in which a wet flannel is soaped with the soap bar for 15 seconds, the axilla is washed with the soaped flannel for 30 seconds, then wiped with a water rinsed flannel and dried with a clean towel.

[2] = target: T1, lipoxidase (E.C. 13.1.13) (Glycine max, UniProt P08170); assay: The Lipoxidase Test (inhibition of linoleic acid oxidation); assay type: biochemical; details: test substrate made with 0.5% by weight solution of the material in ethanol, borate buffer pH 9.0, OD at 234 nm
T1 sequence (P08170 1-839): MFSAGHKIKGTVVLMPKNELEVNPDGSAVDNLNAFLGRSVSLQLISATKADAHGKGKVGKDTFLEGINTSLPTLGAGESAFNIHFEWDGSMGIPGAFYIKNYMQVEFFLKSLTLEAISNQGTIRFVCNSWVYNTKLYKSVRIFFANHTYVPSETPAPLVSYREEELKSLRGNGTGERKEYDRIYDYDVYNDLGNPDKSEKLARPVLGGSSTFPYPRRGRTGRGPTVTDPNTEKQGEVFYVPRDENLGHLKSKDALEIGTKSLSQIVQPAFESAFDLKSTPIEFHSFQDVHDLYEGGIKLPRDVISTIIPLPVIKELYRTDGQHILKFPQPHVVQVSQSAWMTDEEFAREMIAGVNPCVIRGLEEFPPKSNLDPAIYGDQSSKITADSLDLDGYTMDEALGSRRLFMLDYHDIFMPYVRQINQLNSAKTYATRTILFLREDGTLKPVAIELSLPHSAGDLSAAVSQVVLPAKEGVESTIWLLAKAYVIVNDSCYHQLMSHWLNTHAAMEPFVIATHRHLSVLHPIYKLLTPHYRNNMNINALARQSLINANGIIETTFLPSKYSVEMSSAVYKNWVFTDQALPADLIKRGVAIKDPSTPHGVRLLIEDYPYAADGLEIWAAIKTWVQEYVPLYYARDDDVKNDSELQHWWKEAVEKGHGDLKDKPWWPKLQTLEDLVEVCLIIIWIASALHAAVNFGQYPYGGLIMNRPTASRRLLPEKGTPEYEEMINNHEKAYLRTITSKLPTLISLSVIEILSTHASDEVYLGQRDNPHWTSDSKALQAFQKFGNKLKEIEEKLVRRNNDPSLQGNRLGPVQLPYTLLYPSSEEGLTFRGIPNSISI

[3] = The Morpholine Test (depression of partial vapour pressure of morpholine); details: morpholine 0.25 g + perfume material 1 g, 37° C., headspace GC

O=C(Nc1ccc(Cl)cc1)Nc1ccc(Cl)c(Cl)c1 [3,3,4'-trichloro-carbanilide, 3,4,4'-trichlorocarbanilide]
Odour Reduction Value ([1]; 0.16 wt % germicide in soap bar vs control soap bar without germicide): 0.10 | Odour Reduction Value ([1]; 0.25 wt % germicide in soap bar vs control soap bar without germicide): 0.14 | Odour Reduction Value ([1]; 0.5 wt % germicide in soap bar vs control soap bar without germicide): 0.22 | Odour Reduction Value ([1]; 0.75 wt % germicide in soap bar vs control soap bar without germicide): 0.27 | Odour Reduction Value ([1]; 1.0 wt % germicide in soap bar vs control soap bar without germicide): 0.30 | Odour Reduction Value ([1]; 2.0 wt % germicide in soap bar vs control soap bar without germicide): 0.37 | maximum reduction in odour intensity obtainable (odour reduction value) ([1]; germicide alone in soap bar, irrespective of the amount of germicide): ≤ 0.4

O=C(Cc1ccccc1)OCCc1ccccc1 [Phenylethyl phenylacetate]
inhibition at 0.5 % strength ([2]; read-out: LIC (lipoxidase-inhibiting capacity, % inhibition)): 0% | RVR (Raoult variance ratio) [3]: 1.22

Dimyrcetol
LIC (lipoxidase-inhibiting capacity, % inhibition) [2]: 14%

Tetrahydromuguol
LIC (lipoxidase-inhibiting capacity, % inhibition) [2]: 24%

i-Nonyl acetate
LIC (lipoxidase-inhibiting capacity, % inhibition) [2]: 50%

i-Nonyl formate
LIC (lipoxidase-inhibiting capacity, % inhibition) [2]: 19%
